Experimental data from patent US8268531B2, “Photoacid generator compounds and compositions” (Cornell Research Foundation, Inc., priority 2008, dated 2012).

Columns and labels:
Thermal properties (Td) = format: physicochemical; conditions: thermal property of the PAG
[1] = Optical properties: absorptivity at 248 nm in acetonitrile; format: physicochemical; conditions: Measured in acetonitrile

| Compound | Td (Thermal properties (Td)) [°C] | ε248 [1] [cm^2 · mol^-1] |
| --- | --- | --- |
| O=S(=O)(O)C(F)(F)C(F)(F)CCCl | 205 | – |
| O=S(=O)(O)C(F)(F)C(F)(F)Oc1ccccc1 | 190 | 6015 |
| O=S(=O)(O)C(F)(F)C(F)(F)OC(F)(F)C(F)(F)C1CC2CCC1C2 (centres unmarked) | 164 | 5220 |
| O=C1CCC(CC(F)(F)C(F)(F)OC(F)(F)C(F)(F)S(=O)(=O)O)O1 (centres unmarked) | 165 | 5400 |
| O=S(=O)(O)C(F)(F)C(F)(F)C(F)(F)C(F)(F)F | – | 4200 |
